This is an account of results in US20220280503A1, “COMPOSITIONS OF OPIOID ANTAGONISTS, IMPLANT DEVICES, AND TREATMENT METHODS FOR OPIOID USE DISORDER” (Delpor, Inc., priority 2019, published 2022).

Counter-ions that a name gives are not always drawn.

This data set is described as follows: in vitro release of naltrexone from drug delivery devices (Example 1). To be noted: porous membrane about 5-20 mm^2 diffusible area, approximately 70% porosity; phosphate buffer, 37° C. Format: physicochemical. From the text: Naltrexone base was compounded with anisic acid at acid:drug ratios of 0:[…] (molar basis), tableted with polyvinylpyrrolidone as a binder and stearic acid as a lubricant (12% and 2% of the final formulation mass, respectively), and loaded into delivery devices equipped with 0.1 micron polyvinylidene fluoride (DURAPORE®) membranes. In a subset of devices, approximately 75% of the available membrane surface area was blocked to measure the influence of surface area upon output rate. All devices were vacuum back-filled with phosphate buffer and transferred to jars containing a volume (˜100 mL) of the same buffer. The sealed jars were then incubated at 37° C., and small aliquots (˜500 μL) of receiving buffer were withdrawn at selected time points to quantify the released drug by high pressure liquid chromatography (HPLC).

On to `O=C1CC[C@@]2(O)[C@H]3Cc4ccc(O)c5c4[C@@]2(CCN3CC2CC2)[C@H]1O5` [naltrexone HCl], for which the “in vitro elution rate of naltrexone from device” value is on record as “over 50 mg/day”.
